Source: patent US20060034819A1, “Proteins and methods useful for assessing risk of cardiovascular disease” (UNITHER PHARMA, INC., priority 2002, published 2006)

What was measured:
NOS = conditions: LNMMA compared with ADMA; cited from earlier work
mutant DDAH = assay: fluorescence polarization immunoassay (FPIA) with ADMA-OG; assay type: binding, Human
Description: Fluorescence Polarization Immunassay (FPIA) is another homogeneous solution phase immunoassay for small molecule analytes, which has the unique advantage that a positive signal is generated by competition. FPIA detects the difference between mutant DDAH-bound and free fluorescently-labelled ligand as the polarization of emitted light when excited by plane-polarized light. Small molecule ligands tumble so fast during the excited state that emitted light is nearly isotropic, whereas, the larger mutant DDAH-bound ligand hardly rotates at all during the excited state and therefore emits highly polarized or anisotropic light. Analyte is measured by its ability to compete with label for binding to mutant DDAH, and thereby lower the polarization of emitted light, and increase its intensity at certain angles relative to the incident light. […] Free ADMA is measured as a function of its concentration-dependent ability to compete with fluorescein-ADMA for binding to mutant DDAH thereby reducing polarized emission.
ADMA is conjugated through its alpha-amino group to Oregon Green (OG) and purified by reversed phase HPLC. […] At 10^−10 M ADMA-OG, polarization is determined after equilibration with various concentrations of mutant DDAH ranging from 10^−10 M to 10^−6 M. The minimum value should be equivalent to that of the free conjugate. […]

DDAH = DDAH as an ADMA sensor; binding affinity low; cited from earlier work

SMILES: CN(C)C(=N)NCCCC(N)C(=O)O (centres unmarked) [ADMA, asymmetric N,N-dimethyl arginine]
- potency as inhibitors of NOS (NOS): equipotent

SMILES: CNC(=N)NCCC[C@H](N)C(=O)O [LNMMA, L,N-monomethylarginine]
- potency as inhibitors of NOS (NOS): equipotent

SMILES: CN=C(NC)NCCC[C@H](N)C(=O)O [SDMA, symmetric dimethylarginine]
- inhibition of polarization (mutant DDAH; concentration equivalent to 10^−7 M free ADMA): no detectable inhibition
- Km (DDAH): > 100 µM

SMILES: N=C(N)NCCC[C@H](N)C(=O)O [arginine]
- inhibition of polarization (mutant DDAH; 100-fold higher concentration than 10^−7 M free ADMA): no detectable inhibition
